From patent US6066340A, “Process for the preparation of microspheres containing biologically active components” (Fidia S.p.A., priority 1991, dated 2000)

Test: GM1 plasma levels after intramuscular administration
Assay type: in vivo, New Zealand rabbits
Details: 2 mg/kg i.m.
Procedure: Microspheres of different dimensions of HYAFF-11 containing GM1 (10-40 μm) were prepared as described in Examples 29-30.
The ganglioside was administered by intramuscular route to groups of New Zealand rabbits (weighing 2.5 kg) at a concentration of 2 mg/kg.
At the set times, 2.5 ml of blood was withdrawn from the median artery of the ear. Each blood sample was incubated at 37° C. for one hour and then refrigerated overnight at 4° C. The samples were then centrifuged and the upper layer of serum was removed. 2 ml of tetrahydrofurane (THF) were added to 500 μl of serum for the determination of the GM1 content. The sample was stirred and centrifuged and the upper layer was stored. The precipitate was treated twice with […] of THF and 500 μl of phosphate buffer (50 mM) and centrifuged. The upper layers thus obtained were extracted with ethyl ether after separation of the aqueous phase, the organic phase was further extracted with water. The two aqueous phases were then mixed and freeze-dried. The freeze-dried product was redissolved in water and the GM1 content determined by the ELISA test.

## monosialoganglioside GM1
1st study
  Area under curve after i.m. administration of GM1: 127.74 µg/h/mL
2nd study
  Area under curve after i.m. administration of GM1: 134.43 µg/h/mL
